Measurements reported in patent publication US6479435B1, “Diaryl ethers and processes for their preparation and herbicidal and desiccant compositions containing them” (ISK Americas Incorporated, priority 1997, dated 2002).

What was measured:
Type in all cases: in vivo
[1] = system: field corn (Zea mays L., var. Dekalb 535, CORN); experiment: Pre-emerge greenhouse test, crop damage rating; conditions: 14 days after application, rating scale 0-100
Method in brief: (§1)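 Seeds sown in sandy loam mix one day before track-sprayer application of compounds in acetone at 125–1000 g ai/ha (187 l/ha), then surface-watered to incorporate and bottom-watered. Visual rating 14 days after application on a 0–100 scale (0 = no damage, 100 = all plants dead).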

[2] = system: upland rice (Oryza sp., var.Tebonnet, RICE); experiment: Pre-emerge greenhouse test, crop damage rating; conditions: 14 days after application, rating scale 0-100
Method in brief: as §1

[3] = system: redroot pigweed (Amaranthus retroflexus, AMARE); experiment: Post-emerge greenhouse herbicide test, phytotoxicity rating; conditions: 14 days after application; for phytotoxicity rating AMARE: scale 0-100
Method in brief: (§2)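 Compounds in acetone with 0.25% v/v non-ionic surfactant were track-sprayed at 187 l/ha over plants at the 2-3 leaf stage, at 63 to 1000 g ai/ha. Pots were bottom-watered. Injury was scored visually 14 days later on a 0-100 scale, where 0 is no damage and 100 is complete plant death.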

[4] = system: sicklepod (Cassia obtusifolia, CASOB); experiment: as above; conditions: 14 days after application; for phytotoxicity rating CASOB: scale 0-100
Method in brief: as §2

[5] = system: lambsquarters (Chenopodium album, CHEAL); experiment: as above; conditions: 14 days after application; for phytotoxicity rating CHEAL: scale 0-100
Method in brief: as §2

[6] = system: ivyleaf morningglory (Ipomoea hederacea, IPOHE); experiment: as above; conditions: 14 days after application; for phytotoxicity rating IPOHE: scale 0-100
Method in brief: as §2

[7] = system: velvetleaf (Abutilon theophrasti, ABUTH); experiment: as above; conditions: 14 days after application; for phytotoxicity rating ABUTH: scale 0-100
Method in brief: as §2

[8] = system: barnyardgrass (Echinochloa crusgalli, ECHCG); experiment: as above; conditions: 14 days after application; for phytotoxicity rating ECHCG: scale 0-100
Method in brief: as §2

[9] = system: Johnsongrass (Sorghum halepense, SORHA); experiment: as above; conditions: 14 days after application; for phytotoxicity rating SORHA: scale 0-100
Method in brief: as §2

[10] = system: green foxtail (Setaria viridis, SETVI); experiment: as above; conditions: 14 days after application; for phytotoxicity rating SETVI: scale 0-100
Method in brief: as §2

[11] = system: large crabgrass (Digitaria sanguinalis, DIGSA); experiment: as above; conditions: 14 days after application; for phytotoxicity rating DIGSA: scale 0-100
Method in brief: as §2

[12] = system: soybean (Glycine max L., var. Pella 86, SOY); experiment: Post-emerge greenhouse test, crop damage rating; parameters: key to crop damage rating SOY: 0-100 scale: 0 = no damage, 100 = complete death of all plants; conditions: 14 days after application; for crop damage rating SOY: scale 0-100
Method in brief: as §2

[13] = system: redroot pigweed (Amaranthus retroflexus, AMARE); experiment: Pre-emerge greenhouse herbicide test, phytotoxicity rating; conditions: 14 days after application, rating scale 0-100
Method in brief: as §1

[14] = system: sicklepod (Cassia obtusifolia, CASOB); experiment: as above; conditions: 14 days after application, rating scale 0-100
Method in brief: as §1

[15] = system: lambsquarters (Chenopodium album, CHEAL); experiment: as above; conditions: 14 days after application, rating scale 0-100
Method in brief: as §1

[16] = system: ivyleaf morningglory (Ipomoea hederacea, IPOHE); experiment: as above; conditions: 14 days after application, rating scale 0-100
Method in brief: as §1

[17] = system: velvetleaf (Abutilon theophrasti, ABUTH); experiment: as above; conditions: 14 days after application, rating scale 0-100
Method in brief: as §1

[18] = system: barnyardgrass (Echinochloa crusgalli, ECHCG); experiment: as above; conditions: 14 days after application, rating scale 0-100
Method in brief: as §1

[19] = system: Johnsongrass (Sorghum halepense, SORHA); experiment: as above; conditions: 14 days after application, rating scale 0-100
Method in brief: as §1

[20] = system: green foxtail (Setaria viridis, SETVI); experiment: as above; conditions: 14 days after application, rating scale 0-100
Method in brief: as §1

[21] = system: large crabgrass (Digitaria sanguinalis, DIGSA); experiment: as above; conditions: 14 days after application, rating scale 0-100
Method in brief: as §1

[22] = system: field corn (Zea mays L., var. Dekalb 535, CORN); experiment: Post-emerge greenhouse test, crop damage rating; conditions: 14 days after application; for crop damage rating CORN: scale 0-100
Method in brief: as §2

[23] = system: upland rice (Oryza sp., var.Tebonnet, RICE); experiment: Post-emerge greenhouse test, crop damage rating; conditions: 14 days after application; for crop damage rating RICE: scale 0-100
Method in brief: as §2

[24] = system: soybean (Glycine max L., var. Pella 86, SOY); experiment: Pre-emerge greenhouse test, crop damage rating; parameters: key to SOY crop damage rating: 0 = no damage, 100 = complete death of all plants; conditions: 14 days after application, rating scale 0-100
Method in brief: as §1

[25] = system: common ragweed (Ambrosia artemisiifolia L., AMBEL); experiment: Post-emerge greenhouse herbicide test, phytotoxicity rating; conditions: 14 days after application, scale 0-100
Text: A standard greenhouse herbicide activity screening system was used to evaluate the herbicidal efficacy and crop safety of these test compounds. Six broadleaf weed species including redroot pigweed (Amaranthus retroflexus, AMARE), velvetleaf (Abutilon theophrasti, ABUTH), sicklepod (Cassia obtusifolia, CASOB), ivyleaf morningglory (Ipomoea hederacea, IPOHE), lambsquarters (Chenopodium album, CHEAL) and common ragweed (Ambrosia artemisiifolia L., AMBEL) were used as test species. Four grass weed species including green foxtail (Setaria viridis, SETVI), barnyardgrass (Echinochloa crusgalli, ECHCG), Johnsongrass (Sorghum halepense, SORHA), and large crabgrass (Digitaria sanguinalis, DIGSA) were also used. In addition, three crop species, field corn (Zea mays L., var. Dekalb 535, CORN), soybean (Glycine max L., var. Pella 86, SOY), and upland rice (Oryza sp., var.Tebonnet, RICE) were included.
All test compounds were dissolved in acetone and applied to the test units in a volume of 187 l/ha. […] Plants were arranged on a shelf so that the top of the canopy (post-emerge) or top of the soil surface (pre-emerge) was 40-45 cm below the nozzle. Pressurized air was used to force the test solution through the nozzle as it was mechanically advanced (via electrically driven chain drive) over the top of all test plants/pots. This application simulates a typical commercial field herbicide application.
In the post-emerge test, a commercial non-ionic surfactant was also included (0.25% v/v) to enhance wetting of the leaf surfaces Qf target plants at rates ranging from 63 g ai/ha to 1000 g ai/ha. For post-emerge tests, seeds were planted 8-21 days prior to the test to allow emergence and good foliage development prior to application of the test substances. At the time of the post-emerge application, plants of all species were usually at the 2-3 leaf stage of development. Post-emerge test units were always bottom-watered.
At 14 days after application of the test materials, phytotoxicity ratings were recorded. A rating scale of 0-100 was used as previously described in Research Methods in Weed Science, 2nd edition, B. Truelove, Ed., Southern Weed Science Society, Auburn University, Auburn, Ala., 1977. Briefly, “0” corresponds to no damage and “100” corresponds to complete death of all plants in the test unit. This scale was used both to determine efficacy against weed species and damage to crop species. Herbicide activity data for various compounds of this invention, which are shown by compound number in Tables 1-9, are shown in Tables 13 and 14.

CCOC(=O)C(C)Oc1ccc(Oc2cc(-n3c(=O)n4n(c3=S)CCCC4)c(F)cc2Cl)c(N)c1 (centres unmarked) [Compound 8-40]
80: phytotoxicity rating AMARE ([3]; rate 63 g ai/ha) | phytotoxicity rating CHEAL ([5]; rate 250 g ai/ha) | crop damage rating SOY ([12]; rate 63 g ai/ha) | phytotoxicity rating AMBEL ([25]; rate 63 g ai/ha)
60: phytotoxicity rating CHEAL ([5]; rate 63 g ai/ha) | crop damage rating SOY ([12]; rate 250 g ai/ha) | AMARE phytotoxicity rating ([13]; Rate 125 g al/ha)
20: CASOB phytotoxicity rating ([14]; Rate 250 g al/ha) | phytotoxicity rating AMBEL ([25]; rate 250 g ai/ha)
40: phytotoxicity rating IPOHE ([6]; rate 63 g ai/ha)
50: CHEAL phytotoxicity rating ([15]; Rate 125 g al/ha) | ABUTH phytotoxicity rating ([17]; Rate 125 g al/ha)
10: phytotoxicity rating SETVI ([10]; rate 250 g ai/ha) | crop damage rating CORN ([22]; rate 250 g ai/ha)
30: ABUTH phytotoxicity rating ([17]; Rate 250 g al/ha)
100: phytotoxicity rating IPOHE ([6]; rate 250 g ai/ha) | phytotoxicity rating ABUTH ([7]; rate 63 g ai/ha) | phytotoxicity rating ABUTH ([7]; rate 250 g ai/ha) | AMARE phytotoxicity rating ([13]; Rate 250 g al/ha) | CHEAL phytotoxicity rating ([15]; Rate 250 g al/ha)
75: phytotoxicity rating CASOB ([4]; rate 250 g ai/ha)
90: phytotoxicity rating AMARE ([3]; rate 250 g ai/ha)
0: CORN crop damage rating ([1]; Rate 125 g al/ha) | CORN crop damage rating ([1]; Rate 250 g al/ha) | RICE crop damage rating ([2]; Rate 125 g al/ha) | RICE crop damage rating ([2]; Rate 250 g al/ha) | phytotoxicity rating CASOB ([4]; rate 63 g ai/ha) | phytotoxicity rating ECHCG ([8]; rate 63 g ai/ha) | phytotoxicity rating ECHCG ([8]; rate 250 g ai/ha) | phytotoxicity rating SORHA ([9]; rate 63 g ai/ha) | phytotoxicity rating SORHA ([9]; rate 250 g ai/ha) | phytotoxicity rating SETVI ([10]; rate 63 g ai/ha) | phytotoxicity rating DIGSA ([11]; rate 63 g ai/ha) | phytotoxicity rating DIGSA ([11]; rate 250 g ai/ha) | CASOB phytotoxicity rating ([14]; Rate 125 g al/ha) | IPOHE phytotoxicity rating ([16]; Rate 125 g al/ha) | IPOHE phytotoxicity rating ([16]; Rate 250 g al/ha) | ECHCG phytotoxicity rating ([18]; Rate 125 g al/ha) | ECHCG phytotoxicity rating ([18]; Rate 250 g al/ha) | SORHA phytotoxicity rating ([19]; Rate 125 g al/ha) | SORHA phytotoxicity rating ([19]; Rate 250 g al/ha) | SETVI phytotoxicity rating ([20]; Rate 125 g al/ha) | SETVI phytotoxicity rating ([20]; Rate 250 g al/ha) | DIGSA phytotoxicity rating ([21]; Rate 125 g al/ha) | DIGSA phytotoxicity rating ([21]; Rate 250 g al/ha) | crop damage rating CORN ([22]; rate 63 g ai/ha) | crop damage rating RICE ([23]; rate 63 g ai/ha) | crop damage rating RICE ([23]; rate 250 g ai/ha) | SOY crop damage rating ([24]; Rate 125 g al/ha) | SOY crop damage rating ([24]; Rate 250 g al/ha)

O=c1cc2n(c(=O)n1-c1cc(Oc3ccc([N+](=O)[O-])cc3)c(Cl)cc1F)CCC2 [Compound 5-2]
70: ABUTH phytotoxicity rating (0-100) ([7]; 1000 g al/ha) | phytotoxicity rating DIGSA ([21]; 1000 g ai/ha)
20: AMARE phytotoxicity rating (0-100) ([3]; 1000 g al/ha)
50: crop damage rating RICE ([2]; 1000 g ai/ha) | phytotoxicity rating IPOHE ([16]; 1000 g ai/ha) | phytotoxicity rating ECHCG ([18]; 1000 g ai/ha)
0: crop damage rating CORN ([1]; 1000 g ai/ha) | CASOB phytotoxicity rating (0-100) ([4]; 1000 g al/ha) | ECHCG phytotoxicity rating (0-100) ([8]; 1000 g al/ha) | SORHA phytotoxicity rating (0-100) ([9]; 1000 g al/ha) | DIGSA phytotoxicity rating (0-100) ([11]; 1000 g al/ha) | phytotoxicity rating CASOB ([14]; 1000 g ai/ha) | CORN crop damage rating (0-100) ([22]; 1000 g al/ha)
80: phytotoxicity rating SORHA ([19]; 1000 g ai/ha)
100: phytotoxicity rating CHEAL ([15]; 1000 g ai/ha) | phytotoxicity rating ABUTH ([17]; 1000 g ai/ha)
90: phytotoxicity rating SETVI ([20]; 1000 g ai/ha)
40: CHEAL phytotoxicity rating (0-100) ([5]; 1000 g al/ha) | IPOHE phytotoxicity rating (0-100) ([6]; 1000 g al/ha) | phytotoxicity rating AMARE ([13]; 1000 g ai/ha)
15: SOY crop damage rating (0-100) ([12]; 1000 g al/ha)
10: SETVI phytotoxicity rating (0-100) ([10]; 1000 g al/ha) | RICE crop damage rating (0-100) ([23]; 1000 g al/ha) | crop damage rating SOY ([24]; 1000 g ai/ha)
